{
  "source": "patent US10835500B2",
  "about": "“Medicament for accelerated wound healing” (Symrise AG, priority 2014, dated 2020)",
  "format_in_all_cases": "cell-based, human",
  "key": {"IL-1α [1]": {"test_system": "IL-1α", "experiment": "ELISA of secreted IL-1α in supernatant of HaCaT cells", "conditions": "24-hour stimulation, 500 μM", "description": "(§1) In order to investigate interleukin secretion, quantitative real-time PCR was first carried out. For this purpose, RNA from HaCaT cells was used that had previously been stimulated for 6 or 24 hours with Sandalore®. Detection was carried out with specific primers of various interleukins (IL-1α, IL-1β, IL-6, IL-8) and tumor necrosis factor (TNF▪). […] In order to corroborate the results, an ELISA assay was carried out, in which the secreted interleukins in the supernatant of the cells can be detected by means of an immunological reaction. By means of the assay used, secretion of the interleukins (IL-1α, IL-1β, IL-2, IL-4, IL-6, IL-8, IL-10, IL-12, and IL-17α), TNFα, γ-interferon (IFNγ), and granulocyte macrophage colony-stimulating factor (GMCSF) was investigated.\n(§2) Investigation of interleukin secretion and phosphorylation of Akt protein kinase after Sandalore® stimulation. A) Investigation of the regulation of interleukins in HaCaT cells by means of qRT-PCR after stimulation with Sandalore® (500 μM) for 6 h and 24 h. 0.1% DMSO was used as a control. GAPDH was used as a reference gene, and the relative expression between untreated and stimulated cells was determined. Mean values including standard error. n=3 experiments. […] The measured optical density of the treated cells at 450 nm was expressed relative to the background. […]"}, "IL-1β": {"test_system": "IL-1β", "experiment": "Quantitative real-time PCR of IL-1β in HaCaT cells", "conditions": "after 24 hours, 500 μM", "description": "as §1, §2"}, "HaCaT cells": {"test_system": "HaCaT cells", "experiment": "Morphology and propidium iodide staining after 5-day stimulation, HaCaT cells", "conditions": "5-day incubation with 500 μM", "description": "(§3) In order to obtain initial data on possible physiological effects caused by the activation of OR2AT4, HaCaT cells and primary keratinocytes were stimulated for five days with Sandalore®. […] A lethal effect of the odorant can therefore be ruled out (FIG. 16a).\n(§4) Effect of Sandalore® long-term stimulation on morphology, growth, and migration processes in keratinocytes. A) Phase contrast image and PI stains of HaCaT cells and primary keratinocytes after stimulation with Sandalore® (500 μM) or 0.1% DMSO (control) for five days. On positive PI staining, the cell nuclei are stained red. Scale: 100 μm. B) Evaluation of the proliferation assay carried out with the CyQuant Cell Proliferation Kit on HaCaT cells after 5-day stimulation with 500 μM of Sandalore® or 0.1% DMSO (control). For the RNA interference experiments, the cells were transfected with siRNA or scRNA on the day before Sandalore® stimulation. Shown is the mean cell count including standard error relative to untreated cells. Mann-Whitney U test; n=3 experiments. *: p<0.05; **: p<0.01. S: Sandalore. C) Agarose assay for determination of migration of HaCaT cells. Top: Transmitted light images of HaCaT cells that have migrated in the direction of Sandalore® (500 μM) or 0.1% DMSO. […] The longest path traversed by the cells and the overgrown area were measured and compared to the control (0.1% DMSO). […]"}, "protein kinase Akt": {"test_system": "protein kinase Akt", "experiment": "Western Blot, phosphorylation of protein kinase Akt in HaCaT cells", "description": "In addition to the phosphorylated kinases already detected, the phosphorylation of protein kinase Akt was investigated. For this purpose, HaCaT cells were stimulated with Sandalore® for 0, 5, 15 and 30 min, and phosphorylation was investigated by means of Western Blot assays and special antibodies to the unphosphorylated or phosphorylated form of the Akt-protein.\nInvestigation of interleukin secretion and phosphorylation of Akt protein kinase after Sandalore® stimulation. A) Investigation of the regulation of interleukins in HaCaT cells by means of qRT-PCR after stimulation with Sandalore® (500 μM) for 6 h and 24 h. 0.1% DMSO was used as a control. GAPDH was used as a reference gene, and the relative expression between untreated and stimulated cells was determined. Mean values including standard error. n=3 experiments. B) ELISA assay for the detection of interleukins in the supernatant of HaCaT cells stimulated for 24 h with Sandalore® (500 μM). 0.1% DMSO was used as a control. The measured optical density of the treated cells at 450 nm was expressed relative to the background. Supernatants of three independent stimulations were used. Mean values including standard error. Mann-Whitney U test. *: p<0.05. C) Western Blot for investigating phosphorylation of Akt protein kinase by HaCaT cells stimulated for 0, 5, 15, and 30 min with Sandalore® (500 μM). […]"}, "IL-1α [2]": {"test_system": "IL-1α", "experiment": "Quantitative real-time PCR of IL-1α in HaCaT cells", "description": "as §1, §2"}, "primary keratinocytes": {"test_system": "primary keratinocytes", "experiment": "Morphology and propidium iodide staining after 5-day stimulation, primary keratinocytes", "conditions": "5-day incubation with 500 μM", "description": "as §3, §4"}, "JNK/SAPK": {"test_system": "JNK/SAPK", "experiment": "Western Blot, phosphorylation of JNK/SAPK in HaCaT cells", "conditions": "500 μM, 0-30 min", "description": "In the following, an investigation was to be conducted to determine whether a MAPK signalling pathway is activated by Sandalore® stimulation in skin cells, and if so, which pathway is involved. For detection, HaCaT cells were stimulated for 0-30 min with 500 μM of Sandalore®, and the proteins were then isolated and used in Western Blot assays.\nEffect of Sandalore® stimulation on phosphorylation of MAP kinases in skin cells. A) Western Blot for investigating the phosphorylation of the MAP kinases in HaCaT cells stimulated for 0, 5, 15 and 30 min with Sandalore®(500 μM). In order to confirm uniform protein volume, ▪-tubulin was used as a control. ERK1/2: 42/44 kDa; p38: 43 kDa; JNK/SAPK: 46/54 kDA; ▪-tubulin: 52 kDa. B) Quantitative evaluation of p38 and ERK1/2 phosphorylation of HaCaT cells stimulated for 30 min with Sandalore®(500 μM) or additionally with the p38 inhibitor 5B203580 (10 μM) or ERK1/2 inhibitor U0126 (10 μM). For evaluation, the ratio of the phosphorylated (p) and unphosphorylated proteins was established and compared to that of untreated cells. Mean values including standard error. Mann-Whitney U test. *: p<0.05; ***: p<0.001. In C), the inhibitors of the respective other MAP kinase were used, and phosphorylation was compared to the cells stimulated with Sandalore® (500 μM) alone. Mean values including standard error. Mann-Whitney U test. *: p<0.05. […]"}},
  "data": [
    {"smiles": "CC1=CCC(CCC(C)C(C)O)C1(C)C", "note": "(stereo not drawn) [Sandalore®]", "values": [
      {"measurement": "secretion of IL-1α relative to the control (0.1% DMSO)", "setting": "IL-1α [1]", "value": "significantly increased secretion"},
      {"measurement": "increase of expression of IL-1β relative to the control (0.1% DMSO)", "setting": "IL-1β", "value": "approx. 1700%"},
      {"measurement": "morphological changes or PI staining (lethal effect)", "setting": "HaCaT cells", "value": "neither the HaCaT cells nor the keratinocytes showed morphological changes or PI staining"},
      {"measurement": "time until Akt kinase was phosphorylated", "setting": "protein kinase Akt; 500 μM, 0, 5, 15 and 30 min", "value": "≤ 5", "unit": "min"},
      {"measurement": "activation of the protein kinase Akt", "setting": "protein kinase Akt; summary statement", "value": "activated"},
      {"measurement": "increase of expression of IL-1α relative to the control (0.1% DMSO)", "setting": "IL-1α [2]; after 24 hours, 500 μM", "value": "approx. 10,000%"},
      {"measurement": "expression of IL-1α", "setting": "IL-1α [2]; summary statement", "value": "increased"},
      {"measurement": "morphological changes or PI staining (lethal effect)", "setting": "primary keratinocytes", "value": "neither the HaCaT cells nor the keratinocytes showed morphological changes or PI staining"},
      {"measurement": "phosphorylation of JNK/SAPK", "setting": "JNK/SAPK", "value": "no phosphorylation of JNK/SAPK"}
    ]}
  ]
}
